Test results as given in ChEMBL document CHEMBL3045792, “Synthesis, antimicrobial activity, and molecular modeling of novel 4-(3-(4-benzylpiperazin-1-yl)propoxy)-7-methoxy-3-substituted phenyl-2H-chromen-2-one” (2013).
Calls of active or inactive are those of the source. No cut-off for these calls is given here.

Legend:
Type in all cases: functional
[1] = system: Staphylococcus aureus; assay: Antibacterial activity against Staphylococcus aureus assessed as growth inhibition at 600 ug/ml by NCCLS […] method; settings: read-out: IZ
[2] = system: Bacillus pumilus; assay: Antibacterial activity against Bacillus pumilus assessed as growth inhibition at 900 ug/ml by NCCLS […] method
[3] = system: Bacillus pumilus; assay: Antibacterial activity against Bacillus pumilus assessed as growth inhibition at 600 ug/ml by NCCLS […] method
[4] = system: Priestia megaterium; assay: Antibacterial activity against Bacillus megaterium assessed as growth inhibition at 900 ug/ml by NCCLS […] method; settings: read-out: IZ
[5] = system: Priestia megaterium; assay: Antibacterial activity against Bacillus megaterium assessed as growth inhibition at 600 ug/ml by NCCLS […] method; settings: read-out: IZ
[6] = system: Bacillus subtilis; assay: Antibacterial activity against Bacillus subtilis assessed as growth inhibition at 900 ug/ml by NCCLS […] method; settings: read-out: IZ
[7] = system: Bacillus subtilis; assay: Antibacterial activity against Bacillus subtilis assessed as growth inhibition at 600 ug/ml by NCCLS […] method; settings: read-out: IZ
[8] = system: Klebsiella aerogenes; assay: Antibacterial activity against Enterobacter aerogenes assessed as growth inhibition at 900 ug/ml by NCCLS […] method; settings: read-out: IZ
[9] = system: Klebsiella aerogenes; assay: Antibacterial activity against Enterobacter aerogenes assessed as growth inhibition at 600 ug/ml by NCCLS […] method; settings: read-out: IZ
[10] = system: Klebsiella pneumoniae; assay: Antibacterial activity against Klebsiella pneumoniae assessed as growth inhibition at 900 ug/ml by NCCLS […] method; settings: read-out: IZ
[11] = system: Klebsiella pneumoniae; assay: Antibacterial activity against Klebsiella pneumoniae assessed as growth inhibition at 600 ug/ml by NCCLS […] method; settings: read-out: IZ
[12] = system: Proteus mirabilis; assay: Antibacterial activity against Proteus mirabilis assessed as growth inhibition at 900 ug/ml by NCCLS […] method; settings: read-out: IZ
[13] = system: Proteus mirabilis; assay: Antibacterial activity against Proteus mirabilis assessed as growth inhibition at 600 ug/ml by NCCLS […] method; settings: read-out: IZ
[14] = system: Proteus vulgaris; assay: Antibacterial activity against Proteus vulgaris assessed as growth inhibition at 900 ug/ml by NCCLS […] method; settings: read-out: IZ
[15] = system: Proteus vulgaris; assay: Antibacterial activity against Proteus vulgaris assessed as growth inhibition at 600 ug/ml by NCCLS […] method; settings: read-out: IZ
[16] = system: Escherichia coli; assay: Antibacterial activity against Escherichia coli assessed as growth inhibition at 900 ug/ml by NCCLS […] method; settings: read-out: IZ
[17] = system: Fusarium oxysporum; assay: Antifungal activity against Fusarium oxysporum assessed as growth inhibition at 900 ug/ml; settings: read-out: IZ
[18] = system: Fusarium oxysporum; assay: Antifungal activity against Fusarium oxysporum assessed as growth inhibition at 600 ug/ml; settings: read-out: IZ
[19] = system: Fusarium oxysporum; assay: Antifungal activity against Fusarium oxysporum assessed as growth inhibition at 300 ug/ml; settings: read-out: IZ
[20] = system: Candida albicans; assay: Antifungal activity against Candida albicans assessed as growth inhibition at 1200 ug/ml
[21] = system: Candida albicans; assay: Antifungal activity against Candida albicans assessed as growth inhibition at 900 ug/ml
[22] = system: Candida albicans; assay: Antifungal activity against Candida albicans assessed as growth inhibition at 600 ug/ml
[23] = system: Candida albicans; assay: Antifungal activity against Candida albicans assessed as growth inhibition at 300 ug/ml
[24] = system: Streptococcus pyogenes; assay: Antibacterial activity against Streptococcus pyogenes assessed as growth inhibition at 600 ug/ml by NCCLS […] method; settings: read-out: IZ
[25] = system: Streptococcus pyogenes; assay: Antibacterial activity against Streptococcus pyogenes assessed as growth inhibition at 900 ug/ml by NCCLS […] method; settings: read-out: IZ
[26] = system: Staphylococcus aureus; assay: Antibacterial activity against Staphylococcus aureus assessed as growth inhibition at 900 ug/ml by NCCLS […] method; settings: read-out: IZ
[27] = system: Escherichia coli; assay: Antibacterial activity against Escherichia coli assessed as growth inhibition at 600 ug/ml by NCCLS […] method; settings: read-out: IZ
[28] = system: Colletotrichum falcatum; assay: Antifungal activity against Glomerella tucumanensis assessed as growth inhibition at 1200 ug/ml; settings: read-out: IZ
[29] = system: Colletotrichum falcatum; assay: Antifungal activity against Glomerella tucumanensis assessed as growth inhibition at 900 ug/ml; settings: read-out: IZ
[30] = system: Colletotrichum falcatum; assay: Antifungal activity against Glomerella tucumanensis assessed as growth inhibition at 600 ug/ml; settings: read-out: IZ
[31] = system: Colletotrichum falcatum; assay: Antifungal activity against Glomerella tucumanensis assessed as growth inhibition at 300 ug/ml; settings: read-out: IZ
[32] = system: Exserohilum rostratum; assay: Antifungal activity against Setosphaeria rostrata assessed as growth inhibition at 1200 ug/ml; settings: read-out: IZ
[33] = system: Exserohilum rostratum; assay: Antifungal activity against Setosphaeria rostrata assessed as growth inhibition at 900 ug/ml; settings: read-out: IZ
[34] = system: Exserohilum rostratum; assay: Antifungal activity against Setosphaeria rostrata assessed as growth inhibition at 600 ug/ml; settings: read-out: IZ
[35] = system: Exserohilum rostratum; assay: Antifungal activity against Setosphaeria rostrata assessed as growth inhibition at 300 ug/ml; settings: read-out: IZ
[36] = system: Fusarium oxysporum; assay: Antifungal activity against Fusarium oxysporum assessed as growth inhibition at 1200 ug/ml; settings: read-out: IZ

| SMILES | zone of inhibition at 600 µg/mL [1] [mm] | zone of inhibition at 900 µg/mL [4] [mm] | zone of inhibition at 600 µg/mL [5] [mm] | zone of inhibition at 900 µg/mL [6] [mm] | zone of inhibition at 600 µg/mL [7] [mm] | zone of inhibition at 900 µg/mL [8] [mm] | zone of inhibition at 600 µg/mL [9] [mm] | zone of inhibition at 900 µg/mL [10] [mm] | zone of inhibition at 600 µg/mL [11] [mm] | zone of inhibition at 900 µg/mL [12] [mm] | zone of inhibition at 600 µg/mL [13] [mm] | zone of inhibition at 900 µg/mL [14] [mm] | zone of inhibition at 600 µg/mL [15] [mm] | zone of inhibition at 900 µg/mL [16] [mm] | zone of inhibition at 900 µg/mL [17] [mm] | zone of inhibition at 600 µg/mL [18] [mm] | zone of inhibition at 300 µg/mL [19] [mm] | zone of inhibition at 600 µg/mL [24] [mm] | zone of inhibition at 900 µg/mL [25] [mm] | zone of inhibition at 900 µg/mL [26] [mm] | further results |
| --- | --- | --- | --- | --- | --- | --- | --- | --- | --- | --- | --- | --- | --- | --- | --- | --- | --- | --- | --- | --- | --- |
| COc1ccc2c(OCCCN3CCN(Cc4ccc(Br)cc4)CC3)c(-c3ccccc3)c(=O)oc2c1 | 4.25 | 12.1 | 6.25 | 4.16 | 2.08 | 6.8 | 3.25 | 6.24 | 2.89 | 5.02 | 4.28 | 10.2 | 5.02 | 4.01 | 14.2 | 6.15 | 3.56 | 6.25 | 13.1 | 8 | growth inhibition (GI) [2]: inactive; growth inhibition (GI) [3]: inactive; zone of inhibition at 1200 µg/mL ([20]; read-out: IZ): 19.6 mm; zone of inhibition at 900 µg/mL ([21]; read-out: IZ): 10.1 mm; zone of inhibition at 600 µg/mL ([22]; read-out: IZ): 5.84 mm; zone of inhibition at 300 µg/mL ([23]; read-out: IZ): 3.02 mm; zone of inhibition at 600 µg/mL [27]: 2 mm; zone of inhibition at 1200 µg/mL [28]: 33.8 mm; zone of inhibition at 900 µg/mL [29]: 19.4 mm; zone of inhibition at 600 µg/mL [30]: 9.76 mm; zone of inhibition at 300 µg/mL [31]: 5.62 mm; zone of inhibition at 1200 µg/mL [32]: 31.3 mm; zone of inhibition at 900 µg/mL [33]: 15.6 mm; zone of inhibition at 600 µg/mL [34]: 8.12 mm; zone of inhibition at 300 µg/mL [35]: 4.56 mm; zone of inhibition at 1200 µg/mL [36]: 29.4 mm |
| CCCOc1ccc(CN2CCN(CCCOc3c(-c4ccccc4)c(=O)oc4cc(OC)ccc34)CC2)cc1 | 1.55 | 8.4 | 4.2 | 4.25 | 2.5 | 4.02 | 2 | 4.25 | 2.04 | 2.48 | 1.02 | 8.09 | 4.2 | 3.49 | 12.1 | 4.92 | 2.48 | 3.25 | 6.84 | 3.25 | zone of inhibition at 900 µg/mL ([2]; read-out: IZ): 6.8 mm; zone of inhibition at 600 µg/mL ([3]; read-out: IZ): 3.2 mm; growth inhibition (GI) [20]: inactive; growth inhibition (GI) [21]: inactive; growth inhibition (GI) [22]: inactive; growth inhibition (GI) [23]: inactive; zone of inhibition at 600 µg/mL [27]: 1.25 mm; zone of inhibition at 1200 µg/mL [28]: 32.5 mm; zone of inhibition at 900 µg/mL [29]: 16.8 mm; zone of inhibition at 600 µg/mL [30]: 7.6 mm; zone of inhibition at 300 µg/mL [31]: 4.49 mm; zone of inhibition at 1200 µg/mL [32]: 28.6 mm; zone of inhibition at 900 µg/mL [33]: 14.6 mm; zone of inhibition at 600 µg/mL [34]: 6.02 mm; zone of inhibition at 300 µg/mL [35]: 3.25 mm; zone of inhibition at 1200 µg/mL [36]: 19.8 mm |
